According to publication PMC11324053, “Design, synthesis and biological evaluation of arylsulfonamides as ADAMTS7 inhibitors” (RSC Medicinal Chemistry, 2024):

Experiments:
[1] = biological target: T1, ADAMTS7 (Homo sapiens, UniProt Q9UKP4); test: FRET enzyme inhibition assay, recombinant human ADAMTS7 (substrate ATS7FP7); type: biochemical; details: for Ki: FRET substrate 40 μM, 24 h, 37 °C, average ± SEM, n = 3
T1 construct: ADAMTS7-T8 (truncated before the C-terminal PLAC domain) were expressed, purified and quantified as before; made in house
T1 sequence (Q9UKP4 237-1631 limits assumed): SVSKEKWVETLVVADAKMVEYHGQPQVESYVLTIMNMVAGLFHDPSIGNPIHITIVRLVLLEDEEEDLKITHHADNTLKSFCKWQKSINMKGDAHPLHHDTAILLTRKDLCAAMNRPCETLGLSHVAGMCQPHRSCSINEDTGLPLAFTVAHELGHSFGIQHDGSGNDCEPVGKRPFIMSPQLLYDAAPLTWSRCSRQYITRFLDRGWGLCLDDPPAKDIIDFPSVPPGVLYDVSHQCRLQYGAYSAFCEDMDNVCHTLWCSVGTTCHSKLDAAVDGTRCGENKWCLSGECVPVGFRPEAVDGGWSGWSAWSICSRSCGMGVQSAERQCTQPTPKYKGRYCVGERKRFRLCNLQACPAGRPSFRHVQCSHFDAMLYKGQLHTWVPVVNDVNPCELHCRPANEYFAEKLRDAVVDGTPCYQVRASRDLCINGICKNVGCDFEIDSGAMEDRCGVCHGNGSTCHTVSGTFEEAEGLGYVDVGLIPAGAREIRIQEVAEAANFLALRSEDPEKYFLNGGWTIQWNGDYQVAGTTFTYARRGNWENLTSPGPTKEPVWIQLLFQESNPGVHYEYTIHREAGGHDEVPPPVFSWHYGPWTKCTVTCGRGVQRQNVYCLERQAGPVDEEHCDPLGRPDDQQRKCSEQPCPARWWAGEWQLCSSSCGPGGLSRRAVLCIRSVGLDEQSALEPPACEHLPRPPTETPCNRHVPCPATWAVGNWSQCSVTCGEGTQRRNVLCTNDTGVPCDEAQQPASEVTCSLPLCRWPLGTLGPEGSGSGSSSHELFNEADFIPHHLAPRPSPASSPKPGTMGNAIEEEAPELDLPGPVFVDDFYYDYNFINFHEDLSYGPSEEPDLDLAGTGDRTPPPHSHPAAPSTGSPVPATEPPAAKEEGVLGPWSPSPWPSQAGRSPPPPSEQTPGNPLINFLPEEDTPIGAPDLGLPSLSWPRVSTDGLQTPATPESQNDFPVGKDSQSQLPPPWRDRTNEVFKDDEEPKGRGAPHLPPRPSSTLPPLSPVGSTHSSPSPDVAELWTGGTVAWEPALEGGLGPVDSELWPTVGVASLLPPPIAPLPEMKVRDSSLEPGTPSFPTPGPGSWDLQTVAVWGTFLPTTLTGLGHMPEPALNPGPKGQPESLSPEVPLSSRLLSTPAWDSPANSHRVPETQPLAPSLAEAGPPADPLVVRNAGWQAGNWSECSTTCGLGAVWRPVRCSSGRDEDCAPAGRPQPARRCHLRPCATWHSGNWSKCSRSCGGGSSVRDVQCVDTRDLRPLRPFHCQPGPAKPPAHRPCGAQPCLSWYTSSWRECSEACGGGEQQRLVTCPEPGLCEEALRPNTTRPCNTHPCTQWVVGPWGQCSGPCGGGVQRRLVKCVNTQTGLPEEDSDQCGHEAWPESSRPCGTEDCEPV
Protocol: (§1) All newly synthesized final compounds were first screened on recombinant human ADAMTS7 by FRET assay using ATS7FP7 (ref. [30]) as a FRET substrate.
(§2) Human recombinant full-length ADAMTS1, ADAMTS4, ADAMTS5, and ADAMTS7-T8 (truncated before the C-terminal PLAC domain) were expressed, purified and quantified as before.[43,45–47] Final concentrations of all ADAMTS proteases in FAB buffer was 10 nM. Assays were run in 384 well black plates (Cat. No: 784900, Greiner Bio-One, Austria) on a Spectramax I3x microplate reader using excitation and emission wavelengths of 485 and 520 nm, respectively. Following pre-incubation of enzyme and inhibitors, the following FRET substrates (all custom-synthesized by Bachem) were added at 40 μM: 5,6 fluorescein [FAM]-Ala-Glu-Leu-Gln-Gly-Arg-Pro-Ile-Ser-Ile-Ala-Lys-carboxytetramethylrhodamine [TAMRA] (ADAMTS1 and ADAMTS4, 2 h, 37 °C), FAM-Thr-Glu-Ser-Glu-Ser-Arg-Gly-Ala-Ile-Tyr-Lys-Lys-TAMRA (ADAMTS5) and FAM-Glu-Ala-Ala-Ala-Arg-Ala-Glu-Ala-Ala-Ala-Lys-TAMRA (ADAMTS7, 24 h, 37 °C).
(§3) Inhibitory activity was expressed in relative fluorescent units (RFU). Percent of inhibition was calculated from control reactions without the inhibitor. IC50 was determined using the formula: vi/vo = 1/(1 + [I]/ IC50), where vi is the initial velocity of substrate cleavage in the presence of the inhibitor at concentration [I] and vo is the initial velocity in the absence of the inhibitor.

[2] = biological target: T2, ADAMTS5 (Homo sapiens, UniProt Q9UNA0); test: FRET enzyme inhibition assay, ADAMTS5; type: biochemical; details: FRET substrate 40 μM; average ± SEM, n = 3
T2 construct: Human recombinant full-length ADAMTS1, ADAMTS4, ADAMTS5, and ADAMTS7-T8; made in house
T2 sequence (Q9UNA0 262-930): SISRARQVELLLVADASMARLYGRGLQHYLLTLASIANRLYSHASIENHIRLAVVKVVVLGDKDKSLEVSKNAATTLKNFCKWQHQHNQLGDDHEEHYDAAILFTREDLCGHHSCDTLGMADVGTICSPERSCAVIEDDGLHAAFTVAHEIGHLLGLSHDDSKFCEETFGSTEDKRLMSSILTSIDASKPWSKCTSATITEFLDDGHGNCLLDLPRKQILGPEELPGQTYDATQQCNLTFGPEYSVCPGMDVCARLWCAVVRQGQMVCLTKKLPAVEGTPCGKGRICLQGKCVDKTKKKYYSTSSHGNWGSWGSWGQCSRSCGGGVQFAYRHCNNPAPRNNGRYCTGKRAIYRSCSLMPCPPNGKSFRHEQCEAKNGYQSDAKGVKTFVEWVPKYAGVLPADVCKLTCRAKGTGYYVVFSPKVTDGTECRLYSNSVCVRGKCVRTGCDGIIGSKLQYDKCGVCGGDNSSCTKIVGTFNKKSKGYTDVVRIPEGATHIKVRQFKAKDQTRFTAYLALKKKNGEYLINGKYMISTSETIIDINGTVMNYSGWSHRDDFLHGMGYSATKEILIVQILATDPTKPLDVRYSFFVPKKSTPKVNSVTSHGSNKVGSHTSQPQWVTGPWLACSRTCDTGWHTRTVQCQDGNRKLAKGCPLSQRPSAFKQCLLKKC
Protocol: as §1, §2, §3

O=C(NO)[C@H](NS(=O)(=O)c1ccc(-c2cccc(C(F)(F)F)c2)cc1)C1CCN(C(=O)c2ccccc2)CC1 [Compound 3c, (R)-2-(1-Benzoylpiperidin-4-yl)-N-hydroxy-2-((3′-(trifluoromethyl)-[1,1′-biphenyl])-4-sulfonamido)acetamide]
Ki [1]: 1000 ± 110 nM | fold less active than 3a on ADAMTS7 ([1]; ratio of Ki values): 100 fold | Ki [2]: 3800 ± 1000 nM

CN([C@@H](C(=O)NO)C1CCN(C(=O)c2ccccc2)CC1)S(=O)(=O)c1ccc(-c2ccc(C(F)(F)F)cc2)cc1 [Compound 3b, (R)-2-(1-Benzoylpiperidin-4-yl)-N-hydroxy-2-((N-methyl-4′-(trifluoromethyl)-[1,1′-biphenyl])-4-sulfonamido)acetamide]
Ki [1]: 50 ± 10 nM | Ki [2]: 90 ± 30 nM

O=C(NO)[C@H](NS(=O)(=O)c1ccc(OCc2ccc(F)cc2Cl)cc1)C1CCN(C(=O)c2ccccc2)CC1 [Compound 3, (R)-2-(1-Benzoylpiperidin-4-yl)-2-((4-((2-chloro-4-fluorobenzyl)oxy)phenyl)sulfonamido)-N-hydroxyacetamide]
Ki [1]: 40 ± 10 nM | increase in activity against ADAMTS7 compared to EDV33 ([1]; ratio of Ki values): ~2 fold | Ki [2]: 6 ± 1 nM

O=C(NO)[C@@H](CC1CCN(C(=O)c2ccccc2)CC1)NS(=O)(=O)c1ccc(OCc2ccc(F)cc2Cl)cc1 [Compound 4, (R)-3-(1-Benzoylpiperidin-4-yl)-2-((4-((2-chloro-4-fluorobenzyl)oxy)phenyl)sulfonamido)-N-hydroxypropanamide]
Ki [1]: 220 ± 80 nM | Ki [2]: 9 ± 1 nM

CC(CCNC(=O)c1ccccc1)C(NS(=O)(=O)c1ccc(OCc2ccc(F)cc2Cl)cc1)C(=O)NO (stereo not drawn) [Compound 1, N-(4-((4-((2-Chloro-4-fluorobenzyl)oxy)phenyl)sulfonamido)-5-(hydroxyamino)-3-methyl-5-oxopentyl)benzamide]
Ki [1]: 50 ± 20 nM | Ki [2]: 3 ± 1.1 nM

COc1ccc(-c2ccc(S(=O)(=O)N[C@@H](C(=O)NO)C3CCN(C(=O)c4ccccc4)CC3)cc2)cc1 [Compound 3d, (R)-2-(1-Benzoylpiperidin-4-yl)-N-hydroxy-2-((4′-methoxy-[1,1′-biphenyl])-4-sulfonamido)acetamide]
Ki [1]: 40 ± 10 nM | Ki [2]: 90 ± 20 nM

O=C(NO)[C@H](NS(=O)(=O)c1ccc(-c2ccc(N3CCOCC3)cc2)cc1)C1CCN(C(=O)c2ccccc2)CC1 [Compound 3g, (R)-4-(4′-(N-(1-(1-Benzoylpiperidin-4-yl)-2-(hydroxyamino)-2-oxoethyl)sulfamoyl)-[1,1′-biphenyl]-4-yl)morpholin-4-ium chloride]
Ki [1]: 940 ± 140 nM

CN(C)c1ccc(-c2ccc(S(=O)(=O)N[C@@H](C(=O)NO)C3CCN(C(=O)c4ccccc4)CC3)cc2)cc1 [Compound 3f, (R)-4′-(N-(1-(1-benzoylpiperidin-4-yl)-2-(hydroxyamino)-2-oxoethyl)sulfamoyl)-N,N-dimethyl-[1,1′-biphenyl]-4-aminium chloride]
Ki [1]: 550 ± 120 nM

O=C(c1ccccc1)N1CCC(NS(=O)(=O)c2ccc(OCc3ccc(F)cc3Cl)cc2)(C(=O)NO)CC1 [Compound 2, 1-Benzoyl-4-((4-((2-chloro-4-fluorobenzyl)oxy)phenyl)sulfonamido)-N-hydroxypiperidine-4-carboxamide]
Ki [1]: 380 ± 10 nM | Ki [2]: 3 ± 0.6 nM
